Where two headings read alike, the source gives them in different places.
Tests used:
[1] = Mouse PK studies of 11 (plasma); format: in vivo, Female C57B16/N mice; settings: for T1/2: formulation a (0.2% Tween 80, 10% PEG300); for MRT inf: read-out: MRTInf—obs
From the text: Doses were freshly prepared on the day of dosing. Vehicle compositions of each dose are listed below. […] Adjust pH with 1 N hydrochloric acid to obtain a clear solution or (b) 0.2% Tween 80/20% PEG-300 in water. Adjust pH with 1 N hydrochloric acid to obtain a clear solution
Then the samples were vortexed for 30 s.

[2] = Permeability assay in Caco-2 cells; settings: human
Description: Preparation of Caco-2 Cells: 50 μL and 25 mL of cell culture medium were added to each well of the Transwell insert and reservoir, respectively. And then the HTS transwell plates were incubated at 37° C., 5% CO2 for 1 hour before cell seeding. […] Cell culture medium was replaced every other day, beginning no later than 24 hours after initial plating.
Preparation of Stock Solutions: The stock solutions of control and test compounds were prepared in DMSO at the concentration of 10 mM. Digoxin, Prazosin and propranolol were used as control compounds in this assay.
Assay Procedures: The Caco-2 plate was removed from the incubator and washed twice with pre-warmed HBSS (10 mM HEPES, pH 7.4), and then incubated at 37° C. for 30 minutes. The stock solutions of controls and Test compounds were diluted in DMSO to get 1 mM solutions and then diluted with HBSS (10 mM HEPES, pH 7.4) to get 5 μM working solutions. The final concentration of DMSO in the incubation system was 0.5%. To determine the rate of drug transport in the apical to basolateral direction. Add 125 μL of the test compounds to the Transwell insert (apical compartment), and transfer 50 μL sample (DO sample) immediately from the apical compartment to a new 96-well plate. Fill the wells in the receiver plate (basolateral compartment) with 235 μL of HBSS (10 mM HEPES, pH 7.4). To determine the rate of drug transport in the basolateral to apical direction. Add 285 μL of the test compounds to the receiver plate wells (basolateral compartment), and transfer 50 μL sample (DO sample) immediately from the basolateral compartment to a new 96-well plate. Fill the Transwell insert (apical compartment) with 75 μL of HBSS (10 mM HEPES, pH 7.4). Time 0 samples were prepared by transferring 50 μL of 5 μM working solution to wells of the 96-deepwell plate, followed by the addition of 200 μL cold acetonitrile containing appropriate internal standards (100 nM alprazolam, 200 nM labetalol, 200 nM caffeine and 200 nM diclofenac). The plates were incubated at 37° C. for 2 hours. […] Samples were vortexed for 5 minutes and then centrifuged at 3,220 g for 40 minutes. An aliquot of 100 μL of the supernatant was mixed with 100 μL of ultra-pure water to use for LC-MS/MS analysis. To determine the Lucifer Yellow leakage after 2 hour transport period, stock solution of Lucifer yellow was prepared in water and diluted with HBSS (10 mM HEPES, pH 7.4) to reach the final concentration of 100 μM. 100 μL of the Lucifer yellow solution was added to each Transwell insert (apical compartment), followed by filling the wells in the receiver plate (basolateral compartment) with 300 μL of HBSS (10 mM HEPES, pH 7.4). The plates were incubated at 37° C. for 30 minutes. 80 μL samples were removed directly from the apical and basolateral wells (using the basolateral access holes) and transferred to wells of new 96 wells plates.

[3] = Metabolic stability in pooled human liver microsomes
Description: A master solution was prepared according to the following table.
40 μL of 10 mM NADPH solution was added to each well. The final concentrations of NADPH was 1 mM. The mixture was pre-warmed at 37° C. for 5 minutes. The negative control samples were prepared by replacing NADPH solutions with 40 μL of ultra-pure H2O. The negative control was used to exclude the misleading factor that resulted from instability of chemical itself. Samples with NADPH were prepared in duplicate. Negative controls were prepared in singlet.
The reaction was started with the addition of 4 μL of 200 μM control compound or test compound solutions. […] Samples were centrifuged at 3, 220 g for 40 minutes. Aliquot of 90 μL of the supernatant was mixed with 90 μL of ultra-pure H2O and then used for LC-MS/MS analysis.
For metabolite standard samples: 1 μL of 400 μM working solution was added to 89 μL master solution following by adding 400 μL of cold acetonitrile with internal standard (IS) (100 nM alprazolam, 200 nM Imipramine, 200 nM labetalol and 2 μM ketoprofen). Then 10 μL of 10 mM NADPH solution or ultra-pure H2O was added to the mixture. Samples were centrifuged at 3,220 g for 40 minutes to precipitate protein. Aliquots of 90 μL supernatant diluted by 90 μL of water was used for LC-MS/MS analysis.

[4] = female, C57B16/N, mouse, plasma, iv, 1 mg/kg, 1 mg/kg IV
[5] = female, C57B16/N, mouse, plasma, po, 10 mg/kg, 10 mg/kg PO, formulation a
[6] = female, C57B16/N, mouse, plasma, po, 50 mg/kg, 50 mg/kg PO, formulation a
[7] = female, C57B16/N, mouse, plasma, po, 50 mg/kg, 50 mg/kg PO, formulation b
[8] = female, C57B16/N, mouse, plasma, po, title: single 100 mg/kg dosage, 50 mg/kg^b, formulation b
[9] = female, C57B16/N, mouse, plasma, 1 mg/kg IV

## C[C@@H]1Cc2cc(C(N)=O)cnc2N1 [Compound 11, (2R)-2-methyl-2,3-dihydro-1H-pyrrolo[2,3-b]pyridine-5-carboxamide]
[1]; 1 mg/kg IV
  AUClast/D: 464 kg·ng·h/mL/mg
  AUC—%Extrap—obs: 0.574%
  Cl_obs: 36.1 mL/min/kg
[1]; 10 mg/kg PO, formulation a
  AUClast/D: 58.2 kg·ng·h/mL/mg
  AUC—%Extrap—obs: 1.90%
  F_last: 12.7%
[1]; 10 mg/kg PO
  T1/2: 1.309 h
[1]; 50 mg/kg PO, formulation a
  AUClast/D: 1020 kg·ng·h/mL/mg
  AUC—%Extrap—obs: 0.258%
  Cmax: 22500 ng/mL
[1]; 50 mg/kg PO
  T1/2: 2.89 h
[1]; 50 mg/kg PO, formulation b
  AUClast/D: 865 kg·ng·h/mL/mg
  AUC—%Extrap—obs: 7.8%
[1]; [4]
  AUC(0-inf): 467 ng·h/mL
  AUC(0-t): 464 ng·h/mL
  MRT inf: 0.427 h
[1]; [5]
  AUC(0-inf): 593 ng·h/mL
  AUC(0-t): 582 ng·h/mL
  MRT inf: 2.21 h
[1]; [6]
  AUC(0-inf): 51300 ng·h/mL
  AUC(0-t): 51100 ng·h/mL
  MRT inf: 2.5 h
[1]; [7]
  AUC(0-inf): 46700 ng·h/mL
  AUC(0-t): 43200 ng·h/mL
  MRT inf: 3.97 h
[1]; [8]
  AUC(0-t): 116000 ng·h/mL
  Tmax: 0.25 h
  half-life: 3.43 h
[1]; female, C57B16/N, mouse, plasma, po, title: single 100 mg/kg dosage, 50 mg/kg^b, formulation b, read-out: Cmax
  Cmax: 43200 ng/mL
[1]; [9]
  C0: 2620 ng/mL
  half-life: 0.148 h
[1]; female, C57B16/N, mouse, plasma, 10 mg/kg PO, formulation a
  Tmax: 0.5 h
[1]; female, C57B16/N, mouse, plasma, 10 mg/kg PO, formulation a, read-out: Cmax
  Cmax: 412 ng/mL
[1]; female, C57B16/N, mouse, plasma, 50 mg/kg PO, formulation a
  Tmax: 0.25 h
[1]; female, C57B16/N, mouse, plasma, 50 mg/kg PO, formulation b (0.2% Tween 80, 20% PEG300)
  half-life: 4.1 h
[1]; female, C57B16/N, mouse, plasma, 50 mg/kg PO, formulation b, read-out: Cmax
  Cmax: 19000 ng/mL
[2]; Caco-2, pH 7.4
  Papp A→B at 2 h, 5 μM: 27.5 ×10⁻⁶ cm/s
  Papp B→A at 2 h, 5 μM: 21.8 ×10⁻⁶ cm/s
  efflux ratio at 2 h, 5 μM: 0.79
[2]; Caco-2, pH 7.4, Recovery (%) AP-BL
  recovery at 2 h, 5 µM: 102%
[2]; Caco-2, pH 7.4, Recovery (%) BL-AP
  recovery at 2 h, 5 µM: 106%
[3]; Human liver microsomes
  Remaining (%) at 60 minutes: 97.33%
[3]; human, microsomes
  CLint scaled at 2 μM: < 6.79 mL/min/kg
  half-life at 2 μM: > 4.26 h
  microsomal CLint at 2 μM: < 5.42 µL/min/mg

— patent US20250368638A1, “BICYCLIC INHIBITORS OF NICOTINAMIDE […], COMPOSITIONS AND USES THEREOF” (President and Fellows of Harvard College, priority 2021, published 2025)
